Assay results taken from the supplement of paper PMC10307832.

What was measured:
Assay in all cases: relative viability (nuclei count vs DMSO), 5 days (fraction); higher = more cells survive
Tipifarnib + Palbociclib = compound: Cn1cncc1[C@@](N)(c1ccc(Cl)cc1)c1ccc2c(c1)c(-c1cccc(Cl)c1)cc(=O)n2C [Tipifarnib] + CC(=O)c1c(C)c2cnc(Nc3ccc(N4CCNCC4)cn3)nc2n(C2CCCC2)c1=O [Palbociclib] (partner 0.5 µM)
Summary of the method: (§1)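 One day after seeding in 1536-well plates, lung cancer cell lines were dosed by pin tool. Dosing was either single-drug or a fixed anchor-drug dose plus five library-drug doses (not always all listed) in √10 steps. After 5 days, nuclei were stained in one fix-and-stain step and counted on 4× images, and relative viability is the nuclei count of treated wells over that of vehicle wells, given as the median of duplicate plates.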

Tipifarnib + Crizotinib = compound: Cn1cncc1[C@@](N)(c1ccc(Cl)cc1)c1ccc2c(c1)c(-c1cccc(Cl)c1)cc(=O)n2C [Tipifarnib] + C[C@@H](Oc1cc(-c2cnn(C3CCNCC3)c2)cnc1N)c1c(Cl)ccc(F)c1Cl [Crizotinib] (partner 1 µM)
Summary of the method: as §1

Tipifarnib + AZD7762 = compound: Cn1cncc1[C@@](N)(c1ccc(Cl)cc1)c1ccc2c(c1)c(-c1cccc(Cl)c1)cc(=O)n2C [Tipifarnib] + NC(=O)Nc1cc(-c2cccc(F)c2)sc1C(=O)N[C@H]1CCCNC1 [AZD7762] (partner 0.2 µM)
Summary of the method: as §1

Tipifarnib + Vorinostat = compound: Cn1cncc1[C@@](N)(c1ccc(Cl)cc1)c1ccc2c(c1)c(-c1cccc(Cl)c1)cc(=O)n2C [Tipifarnib] + O=C(CCCCCCC(=O)Nc1ccccc1)NO [Vorinostat] (partner 1 µM)
Summary of the method: as §1

Cell Line | relative viability (Tipifarnib + Palbociclib; first compound 0.01 µM) | relative viability (Tipifarnib + Palbociclib; first compound 0.03162 µM) | relative viability (Tipifarnib + Palbociclib; first compound 0.1 µM) | relative viability (Tipifarnib + Palbociclib; first compound 0.3162 µM) | relative viability (Tipifarnib + Palbociclib; first compound 1 µM) | relative viability (Tipifarnib + Crizotinib; first compound 0.01 µM) | relative viability (Tipifarnib + Crizotinib; first compound 0.03162 µM) | relative viability (Tipifarnib + Crizotinib; first compound 0.1 µM) | relative viability (Tipifarnib + Crizotinib; first compound 0.3162 µM) | relative viability (Tipifarnib + Crizotinib; first compound 1 µM) | relative viability (Tipifarnib + AZD7762; first compound 0.01 µM) | relative viability (Tipifarnib + AZD7762; first compound 0.03162 µM) | relative viability (Tipifarnib + AZD7762; first compound 0.1 µM) | relative viability (Tipifarnib + AZD7762; first compound 0.3162 µM) | relative viability (Tipifarnib + AZD7762; first compound 1 µM) | relative viability (Tipifarnib + Vorinostat; first compound 0.01 µM) | relative viability (Tipifarnib + Vorinostat; first compound 0.03162 µM) | relative viability (Tipifarnib + Vorinostat; first compound 0.1 µM) | relative viability (Tipifarnib + Vorinostat; first compound 0.3162 µM) | relative viability (Tipifarnib + Vorinostat; first compound 1 µM)
NCI-H1975 | 0.615 | 0.536 | 0.524 | 0.39 | 0.35 | 0.93 | 0.989 | 0.717 | 0.566 | 0.49 | 0.89 | 0.9 | 0.688 | 0.623 | 0.616 | 0.639 | 0.682 | 0.588 | 0.485 | 0.491
NCI-H1993 | 0.604 | 0.531 | 0.431 | 0.463 | 0.413 | 0.77 | 0.749 | 0.617 | 0.595 | 0.661 | 0.765 | 0.591 | 0.571 | 0.437 | 0.484 | 0.819 | 0.446 | 0.489 | 0.468 | 0.497
NCI-H2085 | 0.492 | 0.431 | 0.472 | 0.413 | 0.506 | 0.685 | 0.446 | 0.433 | 0.414 | 0.469 | 0.979 | 0.73 | 0.67 | 0.478 | 0.552 | 0.767 | 0.575 | 0.62 | 0.53 | 0.445
NCI-H2087 | 0.212 | 0.233 | 0.23 | 0.11 | 0.193 | 0.529 | 0.534 | 0.268 | 0.438 | 0.377 | 0.99 | 0.48 | 0.249 | 0.241 | 0.395 | 0.668 | 0.363 | 0.292 | 0.248 | 0.222
NCI-H2126 | 0.353 | 0.332 | 0.345 | 0.35 | 0.354 | 0.977 | 1.01 | 1.02 | 0.924 | 0.904 | 1.01 | 1 | 0.991 | 0.962 | 0.716 | 0.797 | 0.752 | 0.763 | 0.768 | 0.409
NCI-H2170 | 0.362 | 0.377 | 0.305 | 0.246 | 0.27 | 1.33 | 1.04 | 1.1 | 0.857 | 0.644 | 0.98 | 0.885 | 0.701 | 0.644 | 0.506 | 0.831 | 0.774 | 0.697 | 0.637 | 0.335
NCI-H2347 | 0.361 | 0.388 | 0.398 | 0.381 | 0.361 | 0.53 | 0.546 | 0.57 | 0.476 | 0.486 | 0.834 | 0.721 | 0.665 | 0.505 | 0.61 | 0.547 | 0.515 | 0.497 | 0.431 | 0.476
NCI-H2405 | 0.562 | 0.517 | 0.525 | 0.492 | 0.517 | 0.896 | 0.827 | 0.837 | 0.804 | 0.712 | 0.759 | 0.758 | 0.688 | 0.523 | 0.589 | 1.12 | 0.967 | 0.817 | 0.881 | 0.547
NCI-H3122 | 0.193 | 0.189 | 0.196 | 0.179 | 0.14 | 0.281 | 0.217 | 0.249 | 0.256 | 0.254 | 0.967 | 0.971 | 0.714 | 0.556 | 0.348 | 1.12 | 0.962 | 0.709 | 0.538 | 0.219
PC-3 [JPC-3] | 0.458 | 0.553 | 0.642 | 0.497 | 0.495 | 1.04 | 0.928 | 0.88 | 0.828 | 0.709 | 0.805 | 0.714 | 0.532 | 0.519 | 0.457 | 0.823 | 0.674 | 0.529 | 0.426 | 0.386
PC-14 | 0.42 | 0.346 | 0.226 | 0.15 | 0.163 | 0.928 | 0.834 | 0.748 | 0.469 | 0.43 | 0.322 | 0.228 | 0.227 | 0.136 | 0.16 | 0.698 | 0.324 | 0.455 | 0.236 | 0.157
RERF-LC-KJ | 1.22 | 1.12 | 0.957 | 0.813 | 0.784 | 0.794 | 0.847 | 0.754 | 0.633 | 0.713 | 1.02 | 1.22 | 0.975 | 0.656 | 0.243 | 0.652 | 0.652 | 0.544 | 0.324 | 0.224
